pIC50: −log10 of the molar value. *1 amine or outer side, *2 acyl side, *3 side chain or, on linkers, in order; H or OH if unused. Where a SMILES comes first, the peptide text is derived from it. [ ]: non-standard residue; d: D form. The star is where a group is joined. Abu(ψCOCO) = CC[C@H](N[*:1])C(=O)C(=O)[*:2]; Boc = CC(C)(C)OC(=O)*; OtBu = CC(C)(C)O*; NHAllyl = C=CCN*
Each molecule was assayed against NS3 (Hepatitis C virus, UniProt A3EZJ3) (assay: Inhibition against hepatitis C virus protease NS3 activity).
NS3, sequence (A3EZJ3 whole entry): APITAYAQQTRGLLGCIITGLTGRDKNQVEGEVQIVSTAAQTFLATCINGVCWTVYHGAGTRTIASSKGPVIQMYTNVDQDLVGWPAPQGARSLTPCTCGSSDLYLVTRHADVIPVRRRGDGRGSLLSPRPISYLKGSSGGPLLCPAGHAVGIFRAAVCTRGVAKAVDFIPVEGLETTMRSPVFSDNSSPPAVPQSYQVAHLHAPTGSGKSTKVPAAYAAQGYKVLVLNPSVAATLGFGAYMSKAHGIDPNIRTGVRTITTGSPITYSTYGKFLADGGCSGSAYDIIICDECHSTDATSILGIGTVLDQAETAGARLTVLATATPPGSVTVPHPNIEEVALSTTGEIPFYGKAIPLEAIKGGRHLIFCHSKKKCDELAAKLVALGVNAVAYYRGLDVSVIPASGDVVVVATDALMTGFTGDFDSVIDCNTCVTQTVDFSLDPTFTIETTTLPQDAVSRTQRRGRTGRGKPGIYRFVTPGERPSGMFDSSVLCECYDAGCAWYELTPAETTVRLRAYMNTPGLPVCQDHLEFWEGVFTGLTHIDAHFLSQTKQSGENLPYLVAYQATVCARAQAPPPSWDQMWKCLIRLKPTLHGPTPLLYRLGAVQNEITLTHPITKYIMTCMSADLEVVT
Parameters: species or system Hepacivirus hominis

Going from `C=CCNC(=O)C(=O)C(CC=C)NC(=O)[C@H]1CCCN1C(=O)[C@@H](NC(=O)[C@@H](NC(=O)[C@H](CCC(=O)OC(C)(C)C)NC(=O)[C@H](CC(=O)OC(C)(C)C)NC(=O)OC(C)(C)C)C(C)C)C(C)C` (stereo partly specified) to `C=CCC(NC(=O)[C@H]1CCCN1C(=O)[C@@H](NC(=O)[C@@H](NC(=O)[C@H](CCC(=O)O)NC(=O)[C@@H](N)CC(=O)O)C(C)C)C(C)C)C(=O)C(=O)OC` (stereo partly specified), the pIC50 falls from 6.24 to 5.36 (0.88 log units).

Compared with Ac-DEVVPC-OH, `C=CCNC(=O)C(=O)[C@H](CC)NC(=O)[C@@H]1CCCN1C(=O)[C@@H](NC(=O)[C@@H](NC(=O)[C@H](CCC(=O)OC(C)(C)C)NC(=O)[C@H](CC(=O)OC(C)(C)C)NC(=O)OC(C)(C)C)C(C)C)C(C)C` (Boc-D(OtBu)E(OtBu)VVP[Abu(ψCOCO)]-NHAllyl) is 0.48 log units higher in pIC50: 5.60 for the first, 6.08 for the second. The second is the more potent here.

First: C=CCNC(=O)C(=O)[C@H](CC)NC(=O)[C@@H]1CCCN1C(=O)[C@@H](NC(=O)[C@@H](NC(=O)[C@H](CCC(=O)O)NC(=O)[C@@H](N)CC(=O)O)C(C)C)C(C)C (H-DEVVP[Abu(ψCOCO)]-NHAllyl)
Second: C=CCC(NC(=O)[C@H]1CCCN1C(=O)[C@@H](NC(=O)[C@@H](NC(=O)[C@H](CCC(=O)O)NC(=O)[C@@H](N)CC(=O)O)C(C)C)C(C)C)C(=O)C(=O)C1CC=CCC1 (stereo partly specified)
The pIC50 of the first is 1.01 log units higher: 6.38 for the first, 5.37 for the second. The first is the more potent here.

Compared with `C=CCC(NC(=O)[C@H]1CCCN1C(=O)[C@@H](NC(=O)[C@@H](NC(=O)[C@H](CCC(=O)O)NC(=O)[C@@H](N)CC(=O)O)C(C)C)C(C)C)C(=O)C(=O)NCC` (stereo partly specified), `C=CCC(NC(=O)[C@H]1CCCN1C(=O)[C@@H](NC(=O)[C@@H](NC(=O)[C@H](CCC(=O)OC(C)(C)C)NC(=O)[C@H](CC(=O)OC(C)(C)C)NC(=O)OC(C)(C)C)C(C)C)C(C)C)C(=O)C(=O)OC` (stereo partly specified) is lower in pIC50: 6.46 for the first, under 4.52 for the second. The first is the more potent here.

First: C=CCC(NC(=O)[C@H]1CCCN1C(=O)[C@@H](NC(=O)[C@@H](NC(=O)[C@H](CCC(=O)OC(C)(C)C)NC(=O)[C@H](CC(=O)OC(C)(C)C)NC(=O)OC(C)(C)C)C(C)C)C(C)C)C(=O)C(=O)CC(C)C (stereo partly specified)
Second: C=CCC(NC(=O)[C@H]1CCCN1C(=O)[C@@H](NC(=O)[C@@H](NC(=O)[C@H](CCC(=O)O)NC(=O)[C@@H](N)CC(=O)O)C(C)C)C(C)C)C(=O)C(=O)CC(C)C (stereo partly specified)
The pIC50 of the first is lower: under 4.52 for the first, 5.32 for the second.

`C=CCNC(=O)C(=O)C(CC=C)NC(=O)[C@H]1CCCN1C(=O)[C@@H](NC(=O)[C@@H](NC(=O)[C@H](CCC(=O)O)NC(=O)[C@@H](N)CC(=O)O)C(C)C)C(C)C` (stereo partly specified) showed a pIC50 of 6.47.

From ChEMBL document CHEMBL1133326, “Alpha-ketoamides, alpha-ketoesters and alpha-diketones as HCV NS3 protease inhibitors” (Bioorg Med Chem Lett, 2000)
